Assay results reported in the NIST ThermoML archive (doi:10.1021/je800085u).

Assay: mn = molality of the nth substance listed, in mol/kg
Details: 298.15 K, 101 kPa, Liquid, Taylor dispersion method

CCCCCCCCCCP(C)(C)=O [decyldimethylphosphine oxide] + O
Details | binary diffusion coefficient [m2/s]
m1 = 0 | 5.9e-10
m1 = 0.002 | 5.8e-10
m1 = 0.003 | 5.28e-10
m1 = 0.004 | 2.07e-10
m1 = 0.0077 | 1.75e-10
m1 = 0.0111 | 1.56e-10
m1 = 0.0176 | 1.69e-10
m1 = 0.0215 | 1.63e-10
m1 = 0.0296 | 1.55e-10
m1 = 0.04 | 1.58e-10
